The results in this text go back to patent US20200148646A1, “6-S[…] 7-S[…] ANALOGS AND THE USE THEREOF” (Purdue Pharma, L.P., priority 2013, published 2020).

The structures appear in SMILES notation.

What all share (format): biochemical
The target of one test is human κ opioid receptor (Homo sapiens, UniProt P41145). Put plainly: κ-opioid receptor [35S]GTPγS functional assay, U-2 OS cells. Set-up: expressed in transfected cells; host or cells: U-2 OS cells (in-house membranes). The conditions noted are these: for Emax: U2-OS cells, relative to U69,593. On the procedure:
Membranes from recombinant HEK-293 cells, CHO or U-2 OS cells expressing the recombinant human K opioid receptor (K) were prepared by lysing cells in ice cold hypotonic buffer (2.5 mM MgCl2, 50 mM HEPES, pH 7.4) (10 mL/10 cm dish) followed by homogenization with a tissue grinder/Teflon pestle. Functional [^35S]GTPγS binding assays were conducted as follows. K opioid receptor membrane solution was prepared by sequentially adding final concentrations of 0.026 μg/μl κ membrane protein (in-house), 10 μg/mL saponin, 3 μM GDP and 0.20 nM [^35S]GTPγS to binding buffer (100 mM NaCl, 10 mM MgCl2, 20 mM HEPES, pH 7.4) on ice. The prepared membrane solution (190 μl/well) was transferred to 96-shallow well polypropylene plates containing 10 μl of 20× concentrated stock solutions of agonist prepared in DMSO. Plates were incubated for 30 min at a temperature of about 25° C. with shaking. Reactions were terminated by rapid filtration onto 96-well Unifilter GF/B filter plates (Perkin Elmer, Shelton, Conn.) using a 96-well tissue harvester (Packard) and followed by three filtration washes with 200 μl ice-cold binding buffer (10 mM NaH2PO4, 10 mM Na2HPO4, pH 7.4). Filter plates were subsequently dried at 50° C. for 2-3 hours. Fifty μl/well scintillation cocktail (Perkin Elmer, Shelton, Conn.) was added and plates were counted in a Packard Top-Count for 1 min/well.
κ GTP EC50 is the concentration of a compound providing 50% of the maximal response for the compound at a κ receptor.
κ GTP Emax (%) is the maximal effect elicited by a compound relative to the effect elicited by U69,593.
(§1) In TABLE 2A, activity response of certain Compounds of the Invention at the μ- and κ-opioid receptors using U-2 OS cells was determined as described above for functional assays.

Test [1] deals with T1, μ-opioid receptor (Homo sapiens, UniProt P35372). The test can be described thus: μ-opioid receptor [35S]GTPγS functional assay, U-2 OS cells. Further details: host or cells: U-2 OS cells. The note with it: for Emax: U2-OS cells, relative to DAMGO. On the procedure:
(§2) [^35S]GTPγS functional assays were conducted using freshly thawed μ-receptor membranes prepared in-house from a cell line expressing recombinant opioid receptor in a HEK-293, CHO or U-2 OS cell background, or purchased from a commercial source (Perkin Elmer, Shelton, Conn.; or DiscovRx, Fremont, Calif.). Assay reactions were prepared by sequentially adding the following reagents to binding buffer (100 mM NaCl, 10 mM MgCl2, 20 mM HEPES, pH 7.4) on ice (final concentrations indicated): membrane protein (0.026 mg/mL), saponin ([…]), GDP ([…]) and [^35S]GTPγS (0.20 nM; Perkin Elmer, Shelton, Conn.). The prepared membrane solution (190 l/well) was transferred to 96-shallow well polypropylene plates containing 10 μl of 20× concentrated stock solutions of the agonist [D-Ala^2, N-methyl-Phe^4 Gly-ol^5]-enkephalin (DAMGO) prepared in dimethyl sulfoxide (DMSO). Plates were incubated for 30 min at about 25° C. with shaking. Reactions were terminated by rapid filtration onto 96-well Unifilter GF/B filter plates (Perkin Elmer, Shelton, Conn.) using a 96-well tissue harvester (Perkin Elmer, Shelton, Conn.) followed by three filtration washes with 200 μl of ice-cold wash buffer (10 mM NaH2PO4, 10 mM Na2HPO4, pH 7.4). Filter plates were subsequently dried at 50° C. for 2-3 hr. BetaScint scintillation cocktail (Perkin Elmer, Shelton, Conn.) was added (50 μl/well) and plates were counted using a Packard Top-Count for 1 min/well. Data were analyzed using the sigmoidal dose-response curve fitting functions in GraphPad PRISM v. 3.0, or an in-house function for non-linear, sigmoidal dose-response curve-fitting.
(§3) μ GTP EC50 is the concentration of a compound providing 50% of the maximal response for the compound at a μ-opioid receptor.
(§4) μ GTP Emax (%) is the maximal effect elicited by a compound relative to the effect elicited by DAMGO, a standard agonist. Generally, the μ GTP Emax (%) value measures the efficacy of a compound to treat or prevent pain or other Conditions.
as §1

Test [2] has as its target T1, μ-opioid receptor. Put plainly: μ-opioid receptor [35S]GTPγS functional assay, HEK-293 or CHO cells. The conditions noted are these: for Emax: HEK-293 or CHO cells, relative to DAMGO. As to the method: as §2, §3, §4
In TABLE 2, activity response of certain Compounds of the Invention at the μ- and κ-opioid receptors using HEK-293 or CHO cells was determined as described above for functional assays.

human κ opioid receptor, sequence (P41145 whole entry): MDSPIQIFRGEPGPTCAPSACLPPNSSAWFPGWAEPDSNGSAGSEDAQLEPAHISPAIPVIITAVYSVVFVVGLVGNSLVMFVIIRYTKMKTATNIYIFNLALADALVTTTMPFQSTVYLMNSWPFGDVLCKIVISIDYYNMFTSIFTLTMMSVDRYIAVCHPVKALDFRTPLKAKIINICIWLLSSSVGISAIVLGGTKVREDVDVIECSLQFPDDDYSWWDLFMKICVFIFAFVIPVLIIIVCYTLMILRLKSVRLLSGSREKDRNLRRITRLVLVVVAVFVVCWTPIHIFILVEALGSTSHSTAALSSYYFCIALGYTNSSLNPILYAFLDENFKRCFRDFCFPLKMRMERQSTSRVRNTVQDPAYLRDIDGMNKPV
T1 sequence (P35372 whole entry, species assumed): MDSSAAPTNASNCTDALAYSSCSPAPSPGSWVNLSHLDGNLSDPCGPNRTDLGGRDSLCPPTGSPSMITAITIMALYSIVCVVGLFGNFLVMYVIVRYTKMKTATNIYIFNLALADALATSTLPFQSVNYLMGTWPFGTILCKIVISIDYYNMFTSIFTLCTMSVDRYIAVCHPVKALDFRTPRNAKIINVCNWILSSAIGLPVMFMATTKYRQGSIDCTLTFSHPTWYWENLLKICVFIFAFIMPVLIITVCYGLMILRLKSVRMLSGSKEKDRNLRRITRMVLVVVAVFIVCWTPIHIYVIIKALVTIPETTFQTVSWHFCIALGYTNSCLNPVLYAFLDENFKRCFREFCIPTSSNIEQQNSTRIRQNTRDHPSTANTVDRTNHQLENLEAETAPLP

Broadly, the EC50 is the concentration giving half of the maximal effect. A high value points to weaker potency. A word on the Emax: it is the size of the effect at its maximum, as opposed to the concentration needed. For the compound `CC(C)CN[C@H]1CC[C@]23CCN(CC4CC4)[C@H](Cc4ccc(O)cc42)[C@]3(O)C1` [Compound 42, (4bS,7S,8aS,9R)-11-(cyclopropylmethyl)-7-(isobutylamino)-5,6,7,8,9,10-hexahydro-8aH-9,4b-(epiminoethano)phenanthrene-3,8a-diol], the values for the EC50 on human κ opioid receptor, at μ-opioid receptor [1] and at μ-opioid receptor [2] were 0.25 ± 0.029 nM, 2.81 ± 0.16 nM and 20.2 ± 7.83 nM, respectively. In addition, the Emax is 110% on human κ opioid receptor, 67.3 ± 2.85% on μ-opioid receptor [1] and 16.6 ± 1.63% at μ-opioid receptor [2].

For the compound `COc1ccc2c(c1)[C@@]13CC[C@H](NC(=O)C(C)C)C[C@@]1(O)[C@@H](C2)N(CC1CC1)CC3` [Compound 45, N-((4bS,7S,8aS,9R)-11-(cyclopropylmethyl)-8a-hydroxy-3-methoxy-6,7,8,8a,9,10-hexahydro-5H-9,4b-(epiminoethano)phenanthren-7-yl)isobutyramide], the EC50 on human κ opioid receptor came out at 10.6 ± 2.1 nM; on μ-opioid receptor [1], 72 ± 15.9 nM; on μ-opioid receptor [2], 308 ± 122 nM. Also, the values for the Emax on human κ opioid receptor, at μ-opioid receptor [1] and on μ-opioid receptor [2] were 106 ± 1%, 71 ± 5.69% and 15.3 ± 1.86%, respectively.

Take `CC(C)C(=O)N[C@H]1CC[C@]23CCN(CC4CC4)[C@H](Cc4ccc(O)cc42)[C@]3(O)C1` [Compound 46, N-((4bS,7S,8aS,9R)-11-(cyclopropylmethyl)-3,8a-dihydroxy-6,7,8,8a,9,10-hexahydro-5H-9,4b-(epiminoethano)phenanthren-7-yl)isobutyramide]: the EC50 on human κ opioid receptor was 0.1 ± 0.021 nM; on μ-opioid receptor [1] it was 0.38 ± 0.11 nM; at μ-opioid receptor [2], over 20000 nM. In addition, the Emax on human κ opioid receptor amounted to 102 ± 5.24%; at μ-opioid receptor [1], 54 ± 6.03%; on μ-opioid receptor [2] it was 7.67 ± 3.48%.

With `CC(C)CC[C@H]1C[C@@]2(O)[C@H]3Cc4ccc(O)cc4[C@@]2(CCN3C)C[C@H]1O` [Compound 109, (4bR,6R,7S,8aS,9R)-7-isopentyl-11-methyl-5,6,7,8,9,10-hexahydro-8aH-9,4b-(epiminoethano)phenanthrene-3,6,8a-triol], on μ-opioid receptor [2], it took 1870 ± 203 nM to reach a half-maximal effect (EC50) and the Emax is 41.1 ± 3.25%.

For `CN1CC[C@]23CC(O)[C@@H](CC4CCCC4)C[C@@]2(O)[C@H]1Cc1ccc(O)cc13` (stereo partly drawn) [Compound 110, (4bR,7S,8aS,9R)-7-(cyclopentylmethyl)-11-methyl-5,6,7,8,9,10-hexahydro-8aH-9,4b-(epiminoethano)phenanthrene-3,6,8a-triol], on μ-opioid receptor [2], the EC50 is over 20000 nM and the Emax came to 42.7 ± 32.7%.

With `CN(C)CC(=O)N[C@H]1C[C@@]2(O)[C@H]3Cc4ccc(O)cc4[C@@]2(CCN3CC2CC2)C[C@@H]1O` [Compound 111, N-((4bR,6S,7S,8aS,9R)-11-(cyclopropylmethyl)-3,6,8a-trihydroxy-6,7,8,8a,9,10-hexahydro-5H-9,4b-(epiminoethano)phenanthren-7-yl)-2-(dimethylamino)acetamide], at μ-opioid receptor [2], the EC50 is over 20000 nM and the Emax came to 1.67 ± 0.67%.

As for `CC(C)C(=O)N[C@H]1C[C@H]2[C@H]3Cc4ccc(O)cc4[C@@]2(CCN3CC2CC2)C[C@H]1O` [Compound 112, N-((4bS,6R,7S,8aR,9R)-11-(cyclopropylmethyl)-3,6-dihydroxy-6,7,8,8a,9,10-hexahydro-5H-9,4b-(epiminoethano)phenanthren-7-yl)isobutyramide], on μ-opioid receptor [2], the response was half-maximal at 66.7 ± 27.5 nM (EC50) and the Emax was determined as 8.61 ± 0.31%.

On to `CCN[C@H]1C[C@@]2(O)[C@H]3Cc4ccc(O)cc4[C@@]2(CCN3C)C[C@H]1O` [Compound 113, (4bR,6R,7S,8aS,9R)-7-(ethylamino)-11-methyl-5,6,7,8,9,10-hexahydro-8aH-9,4b-(epiminoethano)phenanthrene-3,6,8a-triol], for which, at μ-opioid receptor [2], the EC50 is over 20000 nM and the Emax was 3.62 ± 3.99%.

With `CCN[C@H]1C[C@@]2(O)[C@H]3Cc4ccc(O)cc4[C@@]2(CCN3C)C[C@@H]1O` [Compound 114, (4bR,6S,7S,8aS,9R)-7-(ethylamino)-11-methyl-5,6,7,8,9,10-hexahydro-8aH-9,4b-(epiminoethano)phenanthrene-3,6,8a-triol], on μ-opioid receptor [2], the EC50 is over 20000 nM and the Emax amounted to 9.47 ± 0.74%.

On to `CC(C)CCCC(=O)N[C@H]1C[C@@]2(O)[C@H]3Cc4ccc(O)cc4[C@@]2(CCN3CC2CC2)C[C@@H]1O` [Compound 115, N-((4bR,6S,7S,8aS,9R)-11-(cyclopropylmethyl)-3,6,8a-trihydroxy-6,7,8,8a,9,10-hexahydro-5H-9,4b-(epiminoethano)phenanthren-7-yl)-5-methylhexanamide], for which, on μ-opioid receptor [2], the EC50 was over 20000 nM and the Emax is -1.04%.

For `CN[C@H]1C[C@@]2(O)[C@H]3Cc4ccc(O)cc4[C@@]2(CCN3C)C[C@H]1O` [Compound 116, (4bR,6R,7S,8aS,9R)-11-methyl-7-(methylamino)-5,6,7,8,9,10-hexahydro-8aH-9,4b-(epiminoethano)phenanthrene-3,6,8a-triol], at μ-opioid receptor [2], the EC50 amounted to 13800 ± 600 nM and the Emax is 28.9 ± 1.26%.

Regarding `CC(C)CCCC(=O)O[C@@H]1C[C@]23CCN(CC4CC4)[C@H](Cc4ccc(O)cc42)[C@]3(O)C[C@@H]1N` [Compound 117, (4bR,6R,7S,8aS,9R)-7-amino-11-(cyclopropylmethyl)-3,8a-dihydroxy-6,7,8,8a,9,10-hexahydro-5H-9,4b-(epiminoethano)phenanthren-6-yl 5-methylhexanoate], on μ-opioid receptor [2], the EC50 was determined as 23 ± 3.59 nM and the Emax was 14.1 ± 1.2%.

In the case of `COc1ccc2c(c1)[C@]13CCN(C)[C@H](C2)[C@H]1[C@H](O)C[C@H](OCCO)C3` [Compound 118, (4bS,6R,8R,8aS,9R)-6-(2-hydroxyethoxy)-3-methoxy-11-methyl-6,7,8,8a,9,10-hexahydro-5H-9,4b-(epiminoethano)phenanthren-8-ol], at μ-opioid receptor [2], the EC50 is over 20000 nM and the Emax worked out at 31.8 ± 5.76%.

Consider `COc1ccc2c(c1)[C@]13CCN(C)[C@H](C2)[C@H]1[C@H](O)C[C@@H](OCCO)C3` [Compound 119, (4bS,6S,8R,8aS,9R)-6-(2-hydroxyethoxy)-3-methoxy-11-methyl-6,7,8,8a,9,10-hexahydro-5H-9,4b-(epiminoethano)phenanthren-8-ol], for which, on μ-opioid receptor [2], the EC50 was over 20000 nM and the Emax was found to be 24.2 ± 3.04%.

In the case of `CN1CC[C@]23C[C@@H](OCCO)C[C@@H](O)[C@@H]2[C@H]1Cc1ccc(O)cc13` [Compound 120, (4bS,6R,8R,8aS,9R)-6-(2-hydroxyethoxy)-11-methyl-6,7,8,8a,9,10-hexahydro-5H-9,4b-(epiminoethano)phenanthrene-3,8-diol], at μ-opioid receptor [2], the half-maximal effective concentration (EC50) amounted to 436 ± 34.7 nM and the Emax was found to be 36.3 ± 1.43%.

Consider `CN1CC[C@]23C[C@H](OCCO)C[C@@H](O)[C@@H]2[C@H]1Cc1ccc(O)cc13` [Compound 121, (4bS,6S,8R,8aS,9R)-6-(2-hydroxyethoxy)-11-methyl-6,7,8,8a,9,10-hexahydro-5H-9,4b-(epiminoethano)phenanthrene-3,8-diol], for which, on μ-opioid receptor [2], the EC50 came to 1960 ± 876 nM and the Emax was determined as 16.6 ± 1.97%.
